ChEMBL document CHEMBL5230085, “Design, synthesis, and biological characterization of a new class of symmetrical polyamine-based small molecule CXCR4 antagonists” (Eur J Med Chem, 2020)
The source made the active and inactive calls. The rule behind the calls is not given here.

Tests used:
[1] = target: T1, C-X-C chemokine receptor type 4 (Homo sapiens, UniProt P61073); assay: Binding affinity to CXCR4 (unknown origin) expressed in CHO cells incubated for 40 mins by competitive binding assay method; type: cell-based
[2] = system: C-X-C chemokine receptor type 4 (Homo sapiens), P61073 [E288D]; assay: Binding affinity to CXCR4 E288D mutant (unknown origin) by 12G5 competitive binding assay
[3] = system: C-X-C chemokine receptor type 4 (Homo sapiens), P61073 [D193A]; assay: Binding affinity to CXCR4 D193A mutant (unknown origin) assessed as reduction in potency; design: scale not given: the % may be the effect or the level left; settings: filed as antagonist
[4] = system: C-X-C chemokine receptor type 4 (Homo sapiens), P61073 [W195A]; assay: Binding affinity to CXCR4 W195A mutant (unknown origin) assessed as reduction in potency; design: scale not given: the % may be the effect or the level left; settings: filed as antagonist
[5] = system: C-X-C chemokine receptor type 4 (Homo sapiens), P61073 [E288D]; assay: Binding affinity to CXCR4 E288D mutant (unknown origin) by competitive binding assay method; settings: filed as antagonist
[6] = target: T1, C-X-C chemokine receptor type 4; assay: Binding affinity to CXCR4 (unknown origin); settings: filed as antagonist
CEM-GFP = assay: Cytotoxicity against human CEM-GFP cells assessed as cell viability at 10 uM incubated for 5 days by Celltiter-blue assay method; type: functional, cell-based; settings: time 5.0 day
[7] = Antiviral activity against HIV1 NL4-3 infected in human CEM-GFP cells assessed as inhibition in viral growth measured after 5 days by 96-well plate assay method; type: functional, cell-based; settings: NL4-3, CEM-GFP, 120 h
[8] = system: C-X-C chemokine receptor type 4 (Homo sapiens), P61073 [R30A]; assay: Binding affinity to N-terminus CXCR4 R30A mutant (unknown origin)
[9] = target: T1, C-X-C chemokine receptor type 4; assay: Antagonist activity at CXCR4 receptor in SDF-1alpha-stimulated human SUP-T1 cells incubated for 30 mins by calcium mobilization assay; type: cell-based
[10] = system: C-X-C chemokine receptor type 4 (Homo sapiens), P61073 [H113A]; assay: Binding affinity to N-terminus CXCR4 H113A mutant (unknown origin)
[11] = system: C-X-C chemokine receptor type 4 (Homo sapiens), P61073 [D262A]; assay: Binding affinity to N-terminus CXCR4 D262A mutant (unknown origin)
Sequence of C-X-C chemokine receptor type 4 (Homo sapiens), P61073 [D262A] (P61073 whole entry D262A): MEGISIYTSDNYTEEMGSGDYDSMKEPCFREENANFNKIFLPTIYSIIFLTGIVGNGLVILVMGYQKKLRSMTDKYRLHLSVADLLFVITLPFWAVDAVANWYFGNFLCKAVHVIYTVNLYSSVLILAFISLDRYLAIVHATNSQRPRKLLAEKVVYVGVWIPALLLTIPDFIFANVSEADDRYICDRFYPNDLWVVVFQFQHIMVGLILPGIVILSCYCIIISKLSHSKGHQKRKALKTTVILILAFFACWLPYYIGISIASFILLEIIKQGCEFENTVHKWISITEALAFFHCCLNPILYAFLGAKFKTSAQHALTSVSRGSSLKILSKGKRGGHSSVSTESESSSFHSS

T1 sequence (P61073 whole entry): as the sequence (P61073 whole entry D262A) above, with A262D counted along it
Sequence of C-X-C chemokine receptor type 4 (Homo sapiens), P61073 [E288D] (P61073 whole entry E288D): as the sequence (P61073 whole entry D262A) above, with A262D, E288D counted along it
Sequence of C-X-C chemokine receptor type 4 (Homo sapiens), P61073 [D193A] (P61073 whole entry D193A): as the sequence (P61073 whole entry D262A) above, with D193A, A262D counted along it
Sequence of C-X-C chemokine receptor type 4 (Homo sapiens), P61073 [W195A] (P61073 whole entry W195A): as the sequence (P61073 whole entry D262A) above, with W195A, A262D counted along it
Sequence of C-X-C chemokine receptor type 4 (Homo sapiens), P61073 [R30A] (P61073 whole entry R30A): as the sequence (P61073 whole entry D262A) above, with R30A, A262D counted along it
Sequence of C-X-C chemokine receptor type 4 (Homo sapiens), P61073 [H113A] (P61073 whole entry H113A): as the sequence (P61073 whole entry D262A) above, with H113A, A262D counted along it

Row | Structure (SMILES) | IC50 [1] [nM] | also measured
1 | c1cc(CNCCCNC2CCCCC2)nc(CNCCCNC2CCCCC2)c1 | 122 | 
2 | c1ccc(CNCc2ccc(CNCc3ccccn3)cc2)nc1 | > 10000 | 
3 | Nc1cc(CNCCCNC2CCCCC2)cc(CNCCCNC2CCCCC2)c1 | 81.2 | 
4 | O=[N+]([O-])c1cc(CNCCCNC2CCCCC2)ccc1CNCCCNC1CCCCC1 | 354 | 
5 | c1cc(CNCCCNC2CCCCC2)cc(CNCCCNC2CCCCC2)c1 | 155 | 
6 | c1cc(CNCCCNC2CCCCC2)ncc1CNCCCNC1CCCCC1 | 194 | 
7 | c1c(CNCCCNC2CCCCC2)cc(CNCCCNC2CCCCC2)cc1CNCCCNC1CCCCC1 | 312 | 
8 | O=C(NCCCNC1CCCCC1)c1ccc(C(=O)NCCCNC2CCCCC2)cc1 | 1700 | 
9 | O=[N+]([O-])c1cc(CNCCCNC2CCCCC2)cc(CNCCCNC2CCCCC2)c1 | 147 | 
10 | c1cc(CNC2CCCCC2)ccc1CNC1CCCCC1 | > 10000 | 
11 | O=C(NCCCNC1CCCCC1)c1ccc(CNCCCNC2CCCCC2)cc1 | 699 | 
12 | CN(C)c1cc(CNCCCNC2CCCCC2)cc(CNCCCNC2CCCCC2)c1 | 119 | 

These reach a lower IC50 [1]. Values come first.

Row | IC50 [1] [nM] | Structure (SMILES) | also measured
13 | 67.5 | c1cc(-c2ccc(CNCCCNC3CCCCC3)cc2)ccc1CNCCCNC1CCCCC1 | 
14 | 19.8 | c1cc(CNCCCNC2CCCCC2)ccc1CNCCCNC1CCCCC1 | Activity [2]: 30%; Activity [3]: 10%; Activity [4]: 10%; Activity [5]: 40%; Activity [6]: 60%; Activity (CEM-GFP): Not toxic; IC50 [7]: 1500 nM; Activity [8]: inactive; IC50 [9]: 119 nM; Activity [10]: inactive; Activity [11]: inactive
15 | 40.8 | c1ccc2c(CNCCCNC3CCCCC3)ccc(CNCCCNC3CCCCC3)c2c1 | 
16 | 68.9 | Nc1cc(CNCCCNC2CCCCC2)ccc1CNCCCNC1CCCCC1 | 
17 | 48 | CN(C)c1cc(CNCCCNC2CCCCC2)ccc1CNCCCNC1CCCCC1 | 
18 | 67.6 | CNc1cc(CNCCCNC2CCCCC2)cc(CNCCCNC2CCCCC2)c1 | 
